Measurements as given in PubChem BioAssay (NCI).
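Results reflect a 48-hour exposure of cells in 96-well plates to compound at five concentrations. GI50 marks 50% less growth. TGI marks complete inhibition of growth.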

Experiments:
Assay in all cases: NCI-60 cell line screen, 48 h
CAKI-1 renal = tested on: CAKI-1 renal
CCRF-CEM leukemia = tested on: CCRF-CEM leukemia
HCT-15 colon = tested on: HCT-15 colon
IGROV1 ovarian = tested on: IGROV1 ovarian
NCI-H226 lung = tested on: NCI-H226 lung
OVCAR-3 ovarian = tested on: OVCAR-3 ovarian
RXF 393 renal = tested on: RXF 393 renal
SF-539 CNS = tested on: SF-539 CNS
SNB-19 CNS = tested on: SNB-19 CNS
SNB-75 CNS = tested on: SNB-75 CNS

Row | Compound | GI50 (CAKI-1 renal) [µM] | TGI (CAKI-1 renal) [µM] | GI50 (CCRF-CEM leukemia) [µM] | TGI (CCRF-CEM leukemia) [µM] | GI50 (HCT-15 colon) [µM] | TGI (HCT-15 colon) [µM] | GI50 (IGROV1 ovarian) [µM] | TGI (IGROV1 ovarian) [µM] | GI50 (NCI-H226 lung) [µM] | TGI (NCI-H226 lung) [µM] | GI50 (OVCAR-3 ovarian) [µM] | TGI (OVCAR-3 ovarian) [µM] | GI50 (RXF 393 renal) [µM] | TGI (RXF 393 renal) [µM] | GI50 (SF-539 CNS) [µM] | TGI (SF-539 CNS) [µM] | GI50 (SNB-19 CNS) [µM] | TGI (SNB-19 CNS) [µM] | GI50 (SNB-75 CNS) [µM] | TGI (SNB-75 CNS) [µM]
1 | C[C@@H](Oc1cc(-n2cnc3ccc(OC[C@@H](O)CO)cc32)sc1C(N)=O)c1ccccc1Cl | 12.2 | > 25 | 0.0127 | 24.6 | 1.88 | > 25 | 0.214 | > 25 | 2.82 | > 25 | 0.0491 | 0.176 | 0.0653 | 2.08 | 0.133 | > 25 | 0.339 | > 25 | 0.29 | 4.41
2 | O=C(O[C@H]1CCN2C[C@H]3C[C@H](CN4C(=O)CCC[C@H]34)[C@@H]2C1)c1ccc(O)cc1 | – | > 100 | – | > 100 | – | > 100 | – | > 100 | – | > 100 | – | > 100 | – | > 100 | – | > 100 | – | > 100 | – | > 100
3 | O=c1c(Cl)cc2nc3ccccc3sc-2c1Cl | – | 37.8 | – | 43.3 | – | 32.3 | – | 28.1 | – | 32.3 | – | 5.93 | – | 32.5 | – | 30.8 | – | 32.9 | – | 32.7
4 | Cc1ccc(S(=O)(=O)N2CCc3ccc(O)c4c3C2Cc2ccc3c(c2-4)OCO3)cc1 (stereo not drawn) | 0.737 | 22.6 | 0.847 | > 27.6 | 0.583 | > 35.1 | 0.708 | 14.2 | 4.71 | 34.3 | 0.286 | 0.707 | 0.853 | 5.96 | 1.02 | 5.26 | 1.4 | > 100 | 0.288 | 9.59
5 | CC1(C)N=C(N)N=C(N)N1c1cccc(Br)c1 | 41.9 | > 100 | 2.24 | > 100 | 1.42 | > 100 | 0.202 | – | – | > 100 | 6.56 | > 100 | > 23.1 | > 100 | 0.393 | > 100 | 1.68 | > 100 | > 59 | > 100
6 | Nc1ccc(Sc2c3ccccc3nc3ccccc23)cc1 | – | 39 | – | 30.2 | – | 36.7 | – | 37.6 | – | 58.4 | – | 29.2 | – | 40.4 | – | 31 | – | 51.6 | – | 36.2
7 | COC[C@H](C)N=CN1CCc2ccccc2C1(Cc1ccccc1)Cc1ccccc1 | – | 44.3 | – | 56.7 | – | 39.1 | – | > 100 | – | 37 | – | 43.8 | – | 32.7 | – | 33.6 | – | 32.5 | – | 43
8 | O=C(/C=C/OC(=O)c1cccc(Cl)c1)c1ccc(Cl)cc1 | > 51.5 | > 100 | 37.5 | > 100 | 50.7 | > 100 | > 46.8 | > 100 | > 79 | > 100 | 21.7 | > 74 | > 100 | > 100 | 23.1 | 55.2 | > 56.5 | > 100 | 17.3 | 73.5
9 | [CH3][Sn]([CH3])([CH3])[O][N+](=O)[O-] | 4.24 | > 10 | 2.19 | 6.9 | 2 | 4.13 | 2.39 | > 10 | 3.5 | 7.39 | 5.06 | > 10 | 2.19 | 9.73 | 2.48 | 9.58 | > 10 | > 10 | > 10 | > 10
10 | CN1CCN(Cc2ccc(NC(=O)c3cncc(C#Cc4cnc(N)c5cnccc45)c3)cc2C(F)(F)F)CC1 | 0.979 | 6.61 | 0.335 | 8.71 | 0.721 | 6.31 | 0.141 | 0.649 | 0.115 | 4.54 | 0.337 | 8.43 | 0.147 | 0.565 | 0.157 | 0.628 | 1.76 | 10.9 | 0.233 | 1.71
11 | C[CH2][Sn]([CH2]C)([O]C(=O)c1ccc(OC)c(OC)c1OC)[O]C(=O)c1ccc(OC)c(OC)c1OC | 14.7 | 30.6 | 13.9 | 56.8 | 61.2 | > 100 | > 100 | > 100 | 19.7 | 46 | > 100 | > 100 | 14.4 | 30.6 | 44.3 | > 71.8 | 53.5 | > 67.5 | 19.1 | 62.8
